The values that follow come from patent US10688084B2 (priority 2016, dated 2020).

Read-outs that look alike come from different tables or passages of the source.

Data set [1] concerns Wistar rats. The class given is in vivo. The note with it: for Δ t after 2 hours, (M ± SD) / Δ t after 3 hours, (M ± SD) / Δ t after 4 hours, (M ± SD) / Δ t after 5 hours, (M ± SD) / Δ t after 6 hours, (M ± SD) / Δ t after 7 hours, (M ± SD): 15 mg/kg. How it is done:
In the study of antipyretic properties of the formula I compound, were taken female and male Wistar rats aged 6-7 weeks, with a body mass of 180-220 g. The number of animals in each group was 10.
The febrile reaction was caused by subcutaneous administration of a 20% suspension of baking yeast. The rectal temperature was measured with an electrothermometer prior to the introduction of yeast and 18 hours after it (the difference of these measurements is the estimated hyperthermic reaction). The preparation was administered to animals at the peak of hyperthermia once (after 18 hours). The antipyretic effect was evaluated by hyperthermia decrease 2 hours after the injection of the test substance, and then the effect dynamics was recorded at hourly intervals for 7 hours.
The introduction to rats was carried out in the amount of no more than 1 ml/100 g. The concentration of the resulting solution was 7.5 mg/ml.
The difference in temperature after preparation administration and after 18 hours of induction with yeast was taken as the parameter of hyperthermia decrease.
Animals were observed individually after administration throughout the study. […] Wilcoxon nonparametric criterion was used for statistical comparison of experimental groups. Differences were determined at the 0.05 level of significance. The statistical analysis was carried out using the R-studio program.

Another data set concerns cyclooxygenase (COX). Nature of the data set: COX activity assay (fluorometric kit, peroxidase activity) with skin fibroblast (HSF) cell lysate. Type of data set: biochemical. The note with it: fibroblast cell lysate, 1.25 to 20 μM in the well.
The conditions of data set [2]: cited from earlier work.
The test system of another data set is acute inflammation. The note with it: literature value; cited from earlier work.
Data set [3] has as its system Wistar rats. The class given is in vivo. The note with it: for Analgesic effect, total/analgesic effect / Paw volume 0 hours / Paw volume 3 hours / Analgesic effect, %: 15 mg/kg. The protocol: In the study of analgesic properties of the formula I compound, were taken female and male Wistar rats aged 6-7 weeks with a body mass of 180-220 g. The number of animals in each group was 10.
[…] inflammation was modeled in rats by subplantar administration of 0.1 ml of a 1% solution of carrageenin (a sulfated polysaccharide from Irish sea moss) into the right hind paw. The substance was administered intragastrically using a gastric probe.
Inflammatory hyperalgesia (increased pain sensitivity of inflamed tissues in rats) was caused by carrageenin and was assessed by decrease of the pain sensitivity threshold—PST (by PST difference) to mechanical irritation (squeezing) of the paw tissue of the animal before the introduction of carrageenin and 3 hours after it. The measurement was performed on the inflamed paw. Used analgesimeter Ugo Basile S.R.L. (Italy) provides a gradual increased afterload on the rat's inflamed paw until a pain reaction appears (assessed by squeaking of animal or withdrawing the paw). The analyte was administered 2 h after carrageenin administration. […] An increase in the pain response threshold under the influence of the substances under study was expressed in an increase in the force of compression of the limb and characterized the intensity of the analgesic effect of the preparation. After the experiment, animals were euthanized by carbon dioxide inhalation method.
The introduction to rats was carried out in the amount of no more than 1 ml/100 g. The concentration of the resulting solution was 5 mg/ml.
To prepare a dose of 20 mg/kg, 40 ml of solution with a concentration of 5 mg/ml (50 mg/kg) were taken, transferred to a 100 ml measuring flask with accuracy class A, adjusted to 100 ml with 0.5% water solution of Tween-80 and the suspension was dispersed to a homogeneous consistency using a dispersant.
To prepare a dose of 10 mg/kg, 20 ml of solution with a concentration of 5 mg/ml (50 mg/kg) were taken, transferred to a 100 ml measuring flask with accuracy class A, adjusted to 100 ml with 0.5% aqueous solution of Tween-80 and the suspension was stirred to a homogeneous consistency with a magnetic stirrer MR Hei-Standard (Heidolph, Germany).
To prepare a dose of 5 mg/kg, […] of solution with a concentration of 5 mg/ml (50 mg/kg) were taken, transferred to a 100 ml measuring flask with accuracy class A, adjusted to 100 ml with 0.5% water solution of Tween-80 and the suspension was stirred to a homogeneous consistency with a magnetic stirrer.

The conditions of data set [4]: literature value; cited from earlier work.
The subject of data set [5] is subacute (formalin) edema. The note with it: prototype of RU 2513089; cited from earlier work.
The subject of data set [6] is Wistar rats. The note with it: prototype of RU 2513089; cited from earlier work.

Consider `COc1ccc2cc([C@H](C)C(=O)O)ccc2c1` [Naproxen, (S)-6-methoxy-α-methyl-2-naphthalenacetic acid, reference compound], for which the “Level of temperature decrease” value with Wistar rats [1] (15 mg/kg (or 65 μmol/kg)) is 0.74-1.6 °C. In the data set on Wistar rats [1] (females), the “Δ t after 2 hours, (M ± SD)” value stood at 1.64; the “Δ t after 3 hours, (M ± SD)” value is 1.35; the “Δ t after 4 hours, (M ± SD)” value came to 1.58; the “Δ t after 5 hours, (M ± SD)” value came to 1.21. Also, in the data set with Wistar rats [1] (females), the “Δ t after 6 hours, (M ± SD)” value turned out to be 1.09 and the “Δ t after 7 hours, (M ± SD)” value turned out to be 0.74. In the data set with Wistar rats [1] (males), the “Δ t after 2 hours, (M ± SD)” value was 1.39; the “Δ t after 3 hours, (M ± SD)” value amounted to 1.49; the “Δ t after 4 hours, (M ± SD)” value turned out to be 1.6; the “Δ t after 5 hours, (M ± SD)” value stood at 1.51. In the data set on Wistar rats [1] (males), the “Δ t after 6 hours, (M ± SD)” value is 1.53 and the “Δ t after 7 hours, (M ± SD)” value stood at 1.44. The same molecule yielded an IC50 in the data set with cyclooxygenase (COX) of 9.56 µM. In addition, in data set [2] (literature value), the UD50 is on record as 49 mg/kg. Moreover, the ED50 acute inflammation in the data set with acute inflammation was 15 mg/kg. For the same molecule, in the data set on Wistar rats [3] (females), the “Analgesic effect, total/analgesic effect” value was 10/7; the “Paw volume 0 hours” value was found to be 5.0 ± 6.2; the “Paw volume 3 hours” value is 5.0 ± 3.2. The “Analgesic effect, %” value in the data set on Wistar rats [3] (females, control = 100.0) was determined as 195.3 ± 125.3%. Also, the “Dose at which a pronounced anesthetic effect is exhibited” value with Wistar rats [3] (intragastric) is reported as 15 mg/kg. In addition, the “Analgesic effect, total/analgesic effect” value in the data set on Wistar rats [3] (males) is listed as 10/7. In addition, in the data set with Wistar rats [3] (rat, in vivo), the “Analgesic effect, %” value came to 234.5 ± 160.2%; the “Paw volume 0 hours” value stood at 5.0 ± 2.9; the “Paw volume 3 hours” value stood at 6.7 ± 4.6.
Take `CN1C(C(=O)Nc2ccccn2)=C(O)c2ccccc2S1(=O)=O` [Pyroxicam]: in data set [2] (in vivo), the UD50 is 36 mg/kg. The “UD50/ED50 (safety index)” value in data set [2] (literature value) is 1.8. In addition, the ED50 acute inflammation in the data set with acute inflammation is 20 mg/kg. Besides, in data set [4], the LD50 is on record as 290 mg/kg and the “LD50/ED50 (therapeutic index)” value is listed as 15.
Take `CCCCC1C(=O)N(c2ccccc2)N(c2ccccc2)C1=O` [Phenylbutazone]: in data set [2] (literature value), the UD50 is listed as 120 mg/kg.
For the molecule `COc1ccc2c(c1)c(CC(=O)O)c(C)n2C(=O)c1ccc(Cl)cc1` [Indomethacin, 1-(4-chlorobenzoyl)-5-methoxy-2-methyl-1H-indol-3-acetic acid], in data set [2] (literature value), the UD50 is given as 10 mg/kg and the “UD50/ED50 (safety index)” value was 1. For the same molecule, in the data set on acute inflammation, the ED50 acute inflammation is given as 10 mg/kg. In data set [4], the LD50 is 47 mg/kg and the “LD50/ED50 (therapeutic index)” value was 4.7.
As for `CC(C)Cc1ccc(C(C)C(=O)O)cc1` (racemic) [Ibuprofen, (RS)-2-(4-isobutylphenyl) propionic acid], in data set [2] (literature value), the UD50 is reported as 310 mg/kg. For the same molecule, in the data set with acute inflammation, the ED50 acute inflammation was 48 mg/kg. In addition, in data set [4], the LD50 is recorded as 750 mg/kg.
For “2-[(2,6-dichlorophenyl) amino] benzene acetic acid [Diclofenac sodium]”, the UD50 in data set [2] (literature value) was 48 mg/kg.
Regarding `COc1ccc2cc([C@H](C)C(=O)OCc3cnc(C)c(OC(=O)[C@@H](C)c4ccc5cc(OC)ccc5c4)c3COC(=O)[C@@H](C)c3ccc4cc(OC)ccc4c3)ccc2c1` [(2S,2'S)-(5-((S)-2-(6-methoxinaft-2-yl)propanoiloxy)-6-methylpyridine-3,4-diyl) bis (methylene) bis (2-(6-methoxynaphth-2-yl) propanoate)], the “Efficacy on the model of subacute (formalin) edema in vivo” value in data set [5] was “pronounced anti-inflammatory effect”. For the same molecule, the “Efficacy on the model of acute (carrageenin) edema in vivo” value in the data set on Wistar rats [6] is listed as “not effective enough”.
As to `CC(=O)Oc1ccccc1C(=O)O` [Acetylsalicylic acid], in data set [2] (literature value), the UD50 is on record as 240 mg/kg and the “UD50/ED50 (safety index)” value is on record as 2.45. For the same molecule, the ED50 acute inflammation in the data set with acute inflammation is recorded as 98 mg/kg. In data set [4], the 50% lethal dose (LD50) is 1600 mg/kg and the “LD50/ED50 (therapeutic index)” value was 16.
